We go through 19 compounds from patent US20260062422A1 (Halda Therapeutics OpCo, Inc., priority 2022, published 2026).

One assay concerns the target T1, BRD4-BD2 (Homo sapiens, UniProt O60885).
T1 construct: made in house; host or cells: T7 phage grown in an E. coli host derived from BL21
As to the kind of experiment: bromoKdELECT assay for binding affinity to BRD4-BD2. The following applies: Table 7. The method, then: Compounds were tested using a bromoKdELECT assay. T7 phage strains displaying bromodomains were grown in parallel in 24-well blocks in an E. coli host derived from the BL21 strain. E. coli were grown to log-phase and infected with T7 phage from a frozen stock (multiplicity of infection=0.4) and incubated with shaking at 32° C. until lysis (90-150 minutes). The lysates were centrifuged (5,000×g) and filtered (0.2 μm) to remove cell debris. Streptavidin-coated magnetic beads were treated with biotinylated small molecule or acetylated peptide ligands for 30 minutes at room temperature to generate affinity resins for bromodomain assays. The liganded beads were blocked with excess biotin and washed with blocking buffer (SeaBlock (Pierce), 1% BSA, 0.05% Tween 20, 1 mM DTT) to remove unbound ligand and to reduce nonspecific phage binding. Binding reactions were assembled by combining bromodomains, liganded affinity beads, and test compounds in 1× binding buffer (17% SeaBlock, 0.33×PBS, 0.04% Tween 20, 0.02% BSA, 0.004% Sodium azide, 7.4 mM DTT). Test compounds were prepared as 1000× stocks in 100% DMSO. Kds were determined using an 11-point 3-fold compound dilution series with one DMSO control point. All compounds for Kd measurements are distributed by acoustic transfer (non-contact dispensing) in 100% DMSO. The compounds were then diluted directly into the assays such that the final concentration of DMSO was 0.09%. All reactions performed in polypropylene 384-well plates. Each was a final volume of 0.02 ml. The assay plates were incubated at room temperature with shaking for 1 hour and the affinity beads were washed with wash buffer (1×PBS, 0.05% Tween 20). The beads were then resuspended in elution buffer (1×PBS, 0.05% Tween 20, 2 μM non-biotinylated affinity ligand) and incubated at room temperature with shaking for 30 minutes. The bromodomain concentration in the eluates was measured by qPCR.

Another assay concerns the target T2, progesterone receptor (Homo sapiens, UniProt P06401).
T2 construct: host or cells: T47D cells (cytosolic fraction)
T2 sequence (P06401 1-933): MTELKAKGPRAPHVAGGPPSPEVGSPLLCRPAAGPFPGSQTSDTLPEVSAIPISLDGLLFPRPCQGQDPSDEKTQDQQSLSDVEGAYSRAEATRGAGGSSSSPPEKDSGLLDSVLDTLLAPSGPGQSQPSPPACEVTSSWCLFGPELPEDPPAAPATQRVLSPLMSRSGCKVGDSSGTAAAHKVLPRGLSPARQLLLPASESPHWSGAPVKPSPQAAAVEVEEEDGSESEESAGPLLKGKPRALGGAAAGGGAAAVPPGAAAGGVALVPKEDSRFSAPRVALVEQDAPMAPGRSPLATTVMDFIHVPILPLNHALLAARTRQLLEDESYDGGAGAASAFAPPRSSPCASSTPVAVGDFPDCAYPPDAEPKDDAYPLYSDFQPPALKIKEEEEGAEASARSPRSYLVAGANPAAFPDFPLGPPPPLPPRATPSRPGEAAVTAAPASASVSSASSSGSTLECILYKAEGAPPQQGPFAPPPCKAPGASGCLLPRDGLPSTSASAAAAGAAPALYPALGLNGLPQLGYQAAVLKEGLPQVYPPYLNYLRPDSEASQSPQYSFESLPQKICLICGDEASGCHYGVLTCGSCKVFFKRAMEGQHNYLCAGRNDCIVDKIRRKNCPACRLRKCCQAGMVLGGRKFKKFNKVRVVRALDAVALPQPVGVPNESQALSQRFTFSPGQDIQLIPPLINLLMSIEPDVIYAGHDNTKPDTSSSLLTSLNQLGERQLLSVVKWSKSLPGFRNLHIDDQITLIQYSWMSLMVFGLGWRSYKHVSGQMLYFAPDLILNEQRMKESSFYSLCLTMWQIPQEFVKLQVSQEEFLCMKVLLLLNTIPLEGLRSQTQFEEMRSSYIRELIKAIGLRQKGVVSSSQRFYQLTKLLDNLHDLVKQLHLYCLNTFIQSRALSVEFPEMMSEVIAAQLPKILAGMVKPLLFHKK
As to the kind of experiment: PR Human Progesterone NHR Binding (Agonist Radioligand) Assay, T47D cytosol. Conditions: T47D cytosolic fractions, 0.5 nM [3H]progesterone, 1 hour at 4° C., Table 16. The method, then: Compounds were tested using the PR Human Progesterone NHR Binding (Agonist Radioligand) Assay, Cerep at Eurofins Discovery using a modified version of the protocol from Sarup et al. (Cancer Res 1988; 48:5071-5078). Briefly, cytosolic fractions of T47D cells were incubated with 0.5 nM [^3H]progesterone for 1 hour at 4° C. in the absence or presence of the test compound. Nonspecific binding was determined in the presence of 1 μM promegestone. Reactions were subjected to scintillation counting. Results are expressed as a percent inhibition of the control radioligand specific binding.

Regarding `Cc1sc2c(c1C)C(c1ccc(Cl)cc1)=N[C@@H](CC(=O)NCCOCCOCCOC1CCN(c3ncc(C(=O)N[C@H]4C(C)(C)[C@H](Oc5ccc(C#N)c(Cl)c5)C4(C)C)cn3)CC1)c1nnc(C)n1-2` [Compound I-7], the Kd (in general, the constant that tells how readily two partners part at equilibrium) at BRD4-BD2 is less than 50 nM.

Consider `CCNC(=O)C[C@@H]1N=C(c2ccc(OCCOC3CCN(c4ncc(C(=O)N[C@H]5C(C)(C)[C@H](Oc6ccc(C#N)c(Cl)c6)C5(C)C)cn4)CC3)cc2)c2c(sc(C)c2C)-n2c(C)nnc21` [Compound I-60, N-((1r,3r)-3-(3-chloro-4-cyanophenoxy)-2,2,4,4-tetramethylcyclobutyl)-2-(4-(2-(4-((S)-6-(2-(ethylamino)-2-oxoethyl)-2,3,9-trimethyl-6H-thieno[3,2-f][1,2,4]triazolo[4,3-a][1,4]diazepin-4-yl)phenoxy)ethoxy)piperidin-1-yl)pyrimidine-5-carboxamide], for which the Kd at BRD4-BD2 is 50 to 500 nM.

Regarding `CCN(C)C(=O)C[C@@H]1N=C(c2ccc(OCCOC3CCN(c4ncc(C(=O)N[C@H]5C(C)(C)[C@H](Oc6ccc(C#N)c(Cl)c6)C5(C)C)cn4)CC3)cc2)c2c(sc(C)c2C)-n2c(C)nnc21` [Compound I-66], at BRD4-BD2, the Kd lay in the range of 500 to 2500 nM.

Regarding `CCNC(=O)C[C@@H]1N=C(c2ccc(OCCOC3CCN(c4ncc(C(=O)N[C@H]5C(C)(C)[C@H](Oc6ccc(C#N)c(Cl)c6)C5(C)C)cn4)CC3)c(F)c2F)c2c(sc(C)c2C)-n2c(C)nnc21` [Compound I-73], the Kd at BRD4-BD2 lay within 50 to 500 nM.

As to `CCNC(=O)C[C@@H]1N=C(c2ccc(OCCOC3CCN(c4ncc(C(=O)N[C@H]5C(C)(C)[C@H](Oc6ccc(C#N)c(Cl)c6)C5(C)C)cn4)CC3)cc2F)c2c(sc(C)c2C)-n2c(C)nnc21` [Compound I-75], the Kd on BRD4-BD2 lay in the range of 50 to 500 nM.

For `CCNC(=O)C[C@@H]1N=C(c2ccc(OCCOC3CCN(c4ncc(C(=O)N[C@H]5C(C)(C)[C@H](Oc6ccc(C#N)c(Cl)c6)C5(C)C)cn4)CC3)c(F)c2)c2c(sc(C)c2C)-n2c(C)nnc21` [Compound I-76], on BRD4-BD2, the Kd is 50 to 500 nM.

On BRD4-BD2, `CCNC(=O)C[C@@H]1N=C(c2ccc(CCCC3CCN(c4ncc(C(=O)N[C@H]5C(C)(C)[C@H](Oc6ccc(C#N)c(Cl)c6)C5(C)C)cn4)CC3)cc2)c2c(sc(C)c2C)-n2c(C)nnc21` [Compound I-95] had a Kd of more than 2500 nM.

As to `Cc1sc2c(c1C)C(c1ccc(CCCOC3CCN(c4ncc(C(=O)N[C@H]5C(C)(C)[C@H](Oc6ccc(C#N)c(Cl)c6)C5(C)C)cn4)CC3)cc1)=N[C@@H](CC(=O)NC(C)C)c1nnc(C)n1-2` [Compound I-100], on BRD4-BD2, the Kd lay in the range of 500 to 2500 nM.

`CCN(C)C(=O)C[C@@H]1N=C(c2ccc(CCCOC3CCN(c4ncc(C(=O)N[C@H]5C(C)(C)[C@H](Oc6ccc(C#N)c(Cl)c6)C5(C)C)cn4)CC3)cc2)c2c(sc(C)c2C)-n2c(C)nnc21` [Compound I-101]: the Kd on BRD4-BD2 was more than 2500 nM.

`Cc1sc2c(c1C)C(c1ccc(CCCOC3CCN(c4ncc(C(=O)N[C@H]5C(C)(C)[C@H](Oc6ccc(C#N)c(Cl)c6)C5(C)C)cn4)CC3)cc1)=N[C@@H](CC(=O)NC1CC1)c1nnc(C)n1-2` [Compound I-102] yielded a Kd at BRD4-BD2 of 50 to 500 nM.

As for `CCNC(=O)C[C@@H]1N=C(c2ccc(N3CCN(CC4CCN(c5ncc(C(=O)N[C@H]6C(C)(C)[C@H](Oc7ccc(C#N)c(Cl)c7)C6(C)C)cn5)CC4)CC3)cc2)c2c(sc(C)c2C)-n2c(C)nnc21` [Compound I-105, N-[3-(3-chloro-4-cyano-phenoxy)-2,2,4,4-tetramethyl-cyclobutyl]-2-[4-[[4-[4-[(9S)-9-[2-(ethylamino)-2-oxo-ethyl]-4,5,13-trimethyl-3-thia-1,8,11,12-tetrazatricyclo[8.3.0.02,6]trideca-2(6),4,7,10,12-pentaen-7-yl]phenyl]piperazin-1-yl]methyl]-1-piperidyl]pyrimidine-5-carboxamide], the Kd at BRD4-BD2 fell in the range of 50 to 500 nM.

As to `CCNC(=O)C[C@@H]1N=C(c2ccc(N(C)CC3CN(c4ncc(C(=O)N[C@H]5C(C)(C)[C@H](Oc6ccc(C#N)c(Cl)c6)C5(C)C)cn4)C3)cc2)c2c(sc(C)c2C)-n2c(C)nnc21` [Compound I-107], the Kd at BRD4-BD2 fell in the range of 50 to 500 nM.

Take `CCNC(=O)C[C@@H]1N=C(c2ccc(N(C)CCN3CCN(c4ncc(C(=O)N[C@H]5C(C)(C)[C@H](Oc6ccc(C#N)c(Cl)c6)C5(C)C)cn4)CC3)cc2)c2c(sc(C)c2C)-n2c(C)nnc21` [Compound I-108]: at BRD4-BD2, the dissociation constant (Kd) lay within 500 to 2500 nM.

Regarding `CCNC(=O)C[C@@H]1N=C(c2ccc(N3CCC(N(C)C4CCN(c5ncc(C(=O)N[C@H]6C(C)(C)[C@H](Oc7ccc(C#N)c(Cl)c7)C6(C)C)cn5)CC4)CC3)cc2)c2c(sc(C)c2C)-n2c(C)nnc21` [Compound I-113], the Kd at BRD4-BD2 was 50 to 500 nM.

Compound `CCNC(=O)C[C@@H]1N=C(c2ccc(N(C)C3CN(CC4CCN(c5ncc(C(=O)N[C@H]6C(C)(C)[C@H](Oc7ccc(C#N)c(Cl)c7)C6(C)C)cn5)CC4)C3)cc2)c2c(sc(C)c2C)-n2c(C)nnc21` [Compound I-119] returned a Kd on BRD4-BD2 of 50 to 500 nM.

As for `Cc1sc2c(c1C)C(c1ccc(CCCOC3CCN(c4ncc(C(=O)N[C@H]5C(C)(C)[C@H](Oc6ccc(C#N)c(Cl)c6)C5(C)C)cn4)CC3)cc1)=N[C@@H](Cc1ncco1)c1nnc(C)n1-2` [Compound I-131, N-[3-(3-chloro-4-cyano-phenoxy)-2,2,4,4-tetramethyl-cyclobutyl]-2-[4-[3-[4-[(9S)-4,5,13-trimethyl-9-(oxazol-2-ylmethyl)-3-thia-1,8,11,12-tetrazatricyclo[8.3.0.02,6]trideca-2(6),4,7,10,12-pentaen-7-yl]phenyl]propoxy]-1-piperidyl]pyrimidine-5-carboxamide], the equilibrium dissociation constant (Kd) on BRD4-BD2 is more than 2500 nM.

`COCC[C@@H]1N=C(c2ccc(CCCOC3CCN(c4ncc(C(=O)N[C@H]5C(C)(C)[C@H](Oc6ccc(C#N)c(Cl)c6)C5(C)C)cn4)CC3)cc2)c2c(sc(C)c2C)-n2c(C)nnc21` [Compound I-227, N-[3-(3-chloro-4-cyano-phenoxy)-2,2,4,4-tetramethyl-cyclobutyl]-2-[4-[3-[4-[(9S)-9-(2-methoxyethyl)-4,5,13-trimethyl-3-thia-1,8,11,12-tetrazatricyclo[8.3.0.02,6]trideca-2(6),4,7,10,12-pentaen-7-yl]phenyl]propoxy]-1-piperidyl]pyrimidine-5-carboxamide] came in with a Kd at BRD4-BD2 of more than 2500 nM.

At BRD4-BD2, `Cc1sc2c(c1C)C(c1ccc(CCCOC3CCN(c4ncc(C(=O)N[C@H]5C(C)(C)[C@H](Oc6ccc(C#N)c(Cl)c6)C5(C)C)cn4)CC3)cc1)=N[C@@H](C)c1nnc(C)n1-2` [Compound I-228, N-[3-(3-chloro-4-cyano-phenoxy)-2,2,4,4-tetramethyl-cyclobutyl]-2-[4-[3-[4-[(9S)-4,5,9,13-tetramethyl-3-thia-1,8,11,12-tetrazatricyclo [8.3.0.02,6]trideca-2(6),4,7,10,12-pentaen-7-yl]phenyl]propoxy]-1-piperidyl]pyrimidine-5-carboxamide] yielded a dissociation constant Kd of more than 2500 nM.

On to `Cc1sc2c(c1C)C(c1ccc(N3CC(CC4CCN(c5ncc(C(=O)N[C@H]6C(C)(C)[C@H](Oc7ccc(C#N)c(Cl)c7)C6(C)C)cn5)CC4)C3)cc1)=N[C@@H](C)c1nnc(C)n1-2` [Compound I-270], for which the Ki (usually the dissociation constant of the complex between target and ligand, obtained from inhibition or displacement) on progesterone receptor was less than 50 nM.
